Assay results from patent US20240124456A1, “AZA-ERGOLINE DERIVATIVE AND PREPARATION METHOD THEREFOR AND APPLICATION THEREOF” (SHANGHAITECH UNIVERSITY, priority 2021, published 2024).
Like-named read-outs stand apart in the source and are kept apart here.

Legend:
[1] = target: 5-HT2A receptor (Homo sapiens (Human), UniProt P28223); experiment: Radioligand competition binding, affinity for 5-HT2A receptor ([3H]-ketanserin); details: for binding selectivity, dopamine D2 receptor versus 5-HT2A receptor: Table 3 compared with Table 1; for Ki: [3H]-ketanserin, HEK-293T membranes
Method: The affinity of the compounds of the present invention for the 5-HT2A receptors was determined by the method of radioligand competition experiment. In the first step, a cell membrane component containing specific 5-HT2A receptor was prepared. A 10 cm dish was used for transfection with 10 ng of the 5-HT2A receptor and 40 μL of PEI. […] A vacuum pump was used to suck off the culture medium, 3 mL of lysis buffer was added to each well, and the cells were placed in a 4° C. freezer for 10 minutes. After the cells were detached, the cells were transferred to a 15 mL centrifuge tube and centrifuged at 1500 rpm for 5 minutes at 4° C., and the supernatant was discarded. The cell pellet was transferred to a tissue homogenizer, and 3 mL of lysis buffer was added and fully ground until the cells were broken. Then, cell suspension was equally divided into several EP tubes, centrifuged at 4° C. and 12000 rpm for 5 min, and the supernatant was discarded. The precipitate was the cell membrane component containing the 5-HT2A receptor. […] First, a standard binding buffer was added to the cell membrane component containing the 5-HT2A receptor, and the cell membrane was disrupted and resuspended with an electric tissue homogenizer. 30 μL of membrane protein suspension was added to each well of a 96-well plate. Then, 30 μL of different drugs were added to the 96-well plate from left to right to ensure that the final drug concentrations were 10^−5 M, 10^−6 M, 10^−7 M, 10^−8 M, 10^−9 M and 0 M, with two replicates per treatment. Next, 30 μL [^3H]-ketanserin was added to each well of the 96-well plate. The plate was incubated for 2 hours at room temperature in the dark. Detection. The machine reading value reflected the amount of [^3H]-ketanserin bound on the membrane, and after further data processing, the affinity Ki value of different compounds for 5-HT2A receptor was obtained.

[2] = system: C57B6 male mice; experiment: Freezing behavior test; format: in vivo; details: 10 mg/kg
Method: Experimental method: The experimental animals were C57B6 male mice, n=8 in each group. Mice were first injected with different compounds, and after a certain period of time (30 min or 60 min), the mice were in an upright and unnatural state by placing their forelimbs on a high glass hanging rod (about 5 cm from the ground). Then the time for the mice to maintain this state was measured, and the length of time was used to determine the freezing effect of the drug on the mice.

[3] = system: C57B6 male mice; experiment: Old and novel object recognition, MK801 recognition impairment model; format: in vivo; details: for Distinguishing index (DI): MK801 (0.3 mg/kg) 14 injections in 7 days, 7 days recovery
Method: The experimental animals were C57B6 male mice, n=8 in each group. Firstly, mice were intraperitoneally injected with MK801 at 0.3 mg/kg twice a day for seven consecutive days to establish a recognition impairment model, and control mice were intraperitoneally injected with normal saline containing the same amount of DMSO. The mice then underwent a seven-day recovery in home cages. After the recovery period expired, the old and novel object distinguishing experiment was performed on the mice to determine the effect of the compounds on the recognition ability of the mice.
Novel and old object recognition experiment: The experiment was carried out in a low-light environment. Before the experiment started, the mice were placed in the experimental field in advance and adapted to the environment for one hour in the low-light environment. After environmental adaptation, the mice were administered intraperitoneally. 30 minutes after the administration, the mice were put in an open field (diameter of the open field of 40 cm) in which two identical objects had been placed beforehand. The mice explored freely in the open field for 10 minutes, and then were removed from the open field and returned to the cage. After a one-hour interval, the mice returned to the open field, where an old object and a novel object were placed in advance in the same position in the open field. Again, the mice explored freely in the open field for 10 minutes. The distinguishing time of the mice for the old object and the novel object was recorded separately and the distinguishing index was calculated. The calculation method of the distinguishing index was (exploration time for novel object−exploration time for old object)/(exploration time for novel object+exploration time for old object). Object exploration by the mice was defined as sniffing, climbing, and direct contact with the object. Data statistics were carried out using Student-t-test, p<0.05 was *, p<0.01 was **, p<0.001 was ***, p<0.0001 was ****.

[4] = Pharmacokinetic properties in C57 male mice, single dose (plasma, LC-MS/MS); format: in vivo; details: for AUC(0-inf): read-out: Area under the drug-time curve AUC0-inf; for AUC(0-t): read-out: Area under the drug-time curve AUC0-t; for MRT: read-out: Mean residence time MRTPO; for half-life: read-out: Terminal elimination half-life t1/2 (converted); for bioavailability: read-out: Bioavailability F; for Cmax: read-out: Drug peak concentration Cmax; for Tmax: read-out: Time to peak tmax
Method: 1. Test of the pharmacokinetic properties of compound (−)-I-10 administered to C57 male mice by single intragastric administration, intraperitoneal injection and intravenous injection
Compound (−)-I-10 was administered in a single dose in C57 male mice, and then blood samples were collected at different time points, the concentration of the compound in mouse plasma was determined by LC-MS/MS and the relevant pharmacokinetic parameters were calculated to investigate the pharmacokinetics of the compound in the mice.
27 male C57 mice were provided by Suzhou Zhaoyan Experimental Animal Co., Ltd., and the experiment was carried out according to Table 4 below.
0.030 mL of blood was taken from each animal through the orbit each time and anticoagulated with EDTA-K2, and the collection time points were: 0, 5, 15, 30 min, 1, 2, 4, 6, 8, 24 h after administration of the test substance. Blood samples were placed on ice after collection, and the plasma was separated by centrifugation within 30 minutes (centrifugation conditions: 5000 rpm, 10 minutes, 4° C.) and stored at −80° C. until analysis.
Data acquisition and control system software was Analyst 1.5.1 software (Applied Biosystem). The sample peak integration method of the spectrum was automatic integration; the ratio of the peak area of the sample to the peak area of the internal standard was used as an index, and regression was performed with the concentration of the sample. Regression method: linear regression with a weight factor of 1/X2. Pharmacokinetic parameters were analyzed using WinNonlin Professional v6.3 (Pharsight, USA) using non-compartmental models. Cmax was the measured maximum drug concentration in blood, the area under the drug concentration in blood-time curve AUC (0→t) was calculated by the trapezoidal method, and Tmax was the time to peak of the drug concentration in blood after administration. The experimental data were expressed by “mean=standard deviation” (Mean±[…], n≥3) or “mean” (Mean, n=2).

[5] = mouse, plasma, intravenous injection 1 mg/kg
[6] = mouse, plasma, ip, intraperitoneal injection 1 mg/kg
[7] = mouse, plasma, oral administration 5 mg/kg

Chain of 5-HT2A receptor (P28223 whole entry): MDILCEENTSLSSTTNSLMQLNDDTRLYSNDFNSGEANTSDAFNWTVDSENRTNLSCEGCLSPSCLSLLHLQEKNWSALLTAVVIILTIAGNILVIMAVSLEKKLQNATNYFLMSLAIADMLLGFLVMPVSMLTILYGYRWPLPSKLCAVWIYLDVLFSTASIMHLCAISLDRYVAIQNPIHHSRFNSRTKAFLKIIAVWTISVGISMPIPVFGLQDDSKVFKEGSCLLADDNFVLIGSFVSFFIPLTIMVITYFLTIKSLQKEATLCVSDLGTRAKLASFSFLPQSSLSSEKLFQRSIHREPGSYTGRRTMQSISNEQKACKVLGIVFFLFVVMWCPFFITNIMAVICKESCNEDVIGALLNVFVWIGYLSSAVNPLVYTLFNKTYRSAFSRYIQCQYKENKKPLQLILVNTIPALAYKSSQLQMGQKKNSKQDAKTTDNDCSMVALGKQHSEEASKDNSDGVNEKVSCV

## O=c1ccc2ccc(OCCCCN3CCN4c5cccc6[nH]cc(c56)CC4C3)cc2[nH]1 (racemic) [Compound I-2, 7-(4(4,6,6a,7,9,10-hexahydro-8H-pyrazino[1,2-a]pyrrolo[4,3,2-de]quinolin-8-yl)butoxy)quinolin-2(1H)-one]
[1]
  binding selectivity, dopamine D2 receptor versus 5-HT2A receptor: more than 100 times
  Ki: 0.907 µM

## CN(C)C(=O)N[C@H]1CC[C@H](CCN2CCN3c4cccc5[nH]cc(c45)C[C@@H]3C2)CC1 [(+)-I-10]
[1]
  affinity for 5-HT2A receptor (in words): very weak affinity
  Ki: 2.48 µM

## CN(C)C(=O)N[C@H]1CC[C@H](CCN2CCN3c4cccc5[nH]cc(c45)C[C@H]3C2)CC1 [(−)-I-10]
[2]
  freezing induction effect on mice (in words): no freezing induction effect
[2]; 30 minutes after administration
  Freezing time: 2.194 ± 0.2524 s
[2]; 60 minutes after administration
  Freezing time: 2.165 ± 0.3256 s
[3]; 0.1 mg/kg and 0.025 mg/kg
  improvement of MK801-induced recognition impairment (in words): significantly improve
[3]; 0.00625 mg/kg
  Distinguishing index (DI): 0.05971 ± 0.03658
[3]; 0.025 mg/kg
  Distinguishing index (DI): 0.3320 ± 0.06367
[3]; 0.1 mg/kg
  Distinguishing index (DI): 0.2789 ± 0.04036
[4]
  pharmacokinetic properties (in words): good pharmacokinetic properties
[4]; intraperitoneal injection 1 mg/kg
  Terminal elimination rate Kel: 0.886 h⁻¹
[4]; intravenous injection 1 mg/kg
  Terminal elimination rate Kel: 0.805 h⁻¹
[4]; mouse, plasma, intravenous injection 1 mg/kg, read-out: Apparent volume of distribution Vdss
  Vd: 4.86 L/kg
[4]; [5]
  AUC(0-inf): 215 ng·h/mL
  AUC(0-t): 211 ng·h/mL
  MRT: 62.4 min
  half-life: 51.7 min
[4]; mouse, plasma, intravenous injection 1 mg/kg, read-out: Clearance CL
  clearance: 77.6 mL/min/kg
[4]; [6]
  AUC(0-inf): 175 ng·h/mL
  AUC(0-t): 172 ng·h/mL
  bioavailability: 81.4%
  Cmax: 271 ng/mL
  MRT: 46.2 min
  half-life: 46.9 min
  Tmax: 5 min
[4]; [7]
  AUC(0-inf): 596 ng·h/mL
  AUC(0-t): 591 ng·h/mL
  bioavailability: 55.9%
  Cmax: 558 ng/mL
  MRT: 89.4 min
  half-life: 69 min
  Tmax: 5 min
[4]; oral administration 5 mg/kg
  Terminal elimination rate Kel: 0.604 h⁻¹
[1]
  affinity for 5-HT2A receptor (in words): very weak affinity
  binding selectivity, dopamine D2 receptor versus 5-HT2A receptor: more than 100 times
  Ki: 2.63 µM

## O=C1CCc2ccc(OCCCCN3CCN4c5cccc6[nH]cc(c56)CC4C3)cc2N1 (centres unmarked) [Compound I-1, 7-(4(4,6,6a,7,9,10-hexahydro-8H-pyrazino[1,2-a]pyrrolo[4,3,2-de]quinolin-8-yl)butoxy)-3,4-dihydroquinolin-2(1H)-one]
[1]
  affinity for 5-HT2A receptor (in words): very weak affinity
  binding selectivity, dopamine D2 receptor versus 5-HT2A receptor: more than 100 times
  Ki: 3.64 µM
